Measured values: patent publication US9340574B2, “Inhibitors of protein tyrosine phosphatases” (Indiana University Research and Technology Corporation, priority 2012, dated 2016)

What was measured:
HepG2 hepatocytes = assay: Insulin signaling in HepG2 hepatocytes; type: cell-based; conditions: HepG2, 1 hour pretreatment, 10 nM insulin 30 min
Procedure: (§1) Cell lysate (20 μg protein) was subjected to 10% SDS-PAGE and probed with phospho-Akt, phospho-IR (Y1162/1163) or Akt antibody, respectively. […] Cell lysate (20 μg protein) was subjected to 10% SDS-PAGE and probed with phospho-IR(Y1162/1163), phospho-Akt (pS473) or total Akt antibody, respectively. […] Cell lysate (20 μg protein) or insulin receptor immunoprecipitation beads were subjected to 10% SDS-PAGE and probed with phospho-Akt, Akt, insulin receptor beta or phospho-tyrosine antibody (4G10), respectively. The non-specific band from insulin receptor immunoprecipitates served as a loading control for insulin receptor and phospho-insulin receptor.
(§2) Western blot analysis. Cells were homogenized in the lysis buffer (50 mM Hepes, pH 7.5, 150 mM NaCl, 10% Glycerol, 1% Triton X-100, 1.5 mM MgCl2, 1 mM EGTA, 10 μM Sodium Pyrophosphate, 100 mM sodium fluoride and freshly added 100 μM sodium vanadate, 1 mM PMSF, 10 μg/ml Aprotinin, and 10 μg/mL Leupeptin). Protein extracts were resolved on an SDS-PAGE gel and transferred to nitrocellulose membrane. […] Protein signals were detected by incubation with HRP-conjugated secondary antibodies, followed by ECL detection reagent (Pierce). Western blots were scanned and quantified using the Quantity One software (Bio-Rad).

[1] = test system: insulin signaling in metabolic tissues of diet-induced obese mice; assay: Insulin signaling in liver, skeletal muscle and white adipose tissue of diet-induced obese mice (immunoblot); type: in vivo, mouse; conditions: skeletal muscle, white adipose tissue, 2-week injections, insulin bolus
Text: To investigate the underlying mechanisms responsible for the improved insulin sensitivity in Compound 7 treated diet-induced obese mice, we analyzed key insulin signaling events in metabolically active tissues. Phosphorylation of Tyr1162/1163 residues in IR was stimulated 2-3 fold higher in the liver, skeletal muscle, and white adipose tissue in Compound 7 treated mice than that in control mice (FIGS. 5G & H). […] These biochemical data are consistent with the animal phenotype that Compound 7 can effectively improve insulin sensitivity in diet-induced obese mice. Our finding that chemical inhibition of PTP-MEG2 augments insulin signaling, insulin sensitivity and glucose homeostasis in insulin resistant mice is consistent with the observation that silencing of PTP-MEG2 in the livers of db/db mice results in a reversal of insulin resistance and hyperglycemia (Cho, et al., Cell Metab. 2006, 3, 367-378). Moreover, our in vivo data also serve as proof-of-concept and support the notion that specific inhibitors of PTP-MEG2 may be effective anti-diabetes agents.

PTPH1 = PTPH1 (Homo sapiens (Human), UniProt P26045); assay: pNPP hydrolysis enzyme assay, PTPH1; type: biochemical
Procedure: (§3) Enzyme kinetic assay. PTP activity was assayed using p-nitrophenyl phosphate (pNPP) as a substrate in 3,3-dimethylglutarate buffer (50 mM 3,3-dimethylglutarate, pH 7.0, 1 mM EDTA, 150 mM NaCl, 2 mM DTT, 0.1 mg/mL BSA) at 25° C. The assays were performed in 96-well plates. Normally, to determine the IC50 values, the reaction was initiated by the addition of enzyme (final concentration at 10 nM) to a reaction mixture (0.2 mL) containing 2 mM (Km for the substrate) pNPP with various concentrations of inhibitors. The reaction rate was measured using a SpectraMax Plus 384 Microplate Spectrophotometer (Molecular Devices). To determine the mode of inhibition, the reactions were initiated by the addition of PTP-MEG2 to the reaction mixtures (0.2 mL) containing various concentrations of pNPP with different concentrations of the inhibitor 7. Data were fitted using SigmaPlot Enzyme Kinetics Module (Systat Software, Inc.).

LYP = LYP (Homo sapiens (Human), UniProt Q9Y2R2); assay: pNPP hydrolysis enzyme assay, LYP; type: biochemical
Procedure: as §3

PTPε = PTPε (Homo sapiens (Human), UniProt P23469); assay: pNPP hydrolysis enzyme assay, PTPε; type: biochemical
Procedure: as §3

C2C12 myotubes = assay: Insulin signaling in C2C12 myotubes; type: cell-based; conditions: 1 hour pretreatment, 100 nM insulin 30 min
Procedure: as §1, §2

FAP1 = FAP1 (Homo sapiens (Human), UniProt Q12923); assay: pNPP hydrolysis enzyme assay, FAP1; type: biochemical
Procedure: as §3

Laforin = Laforin (Homo sapiens (Human), UniProt O95278); assay: pNPP hydrolysis enzyme assay, Laforin; type: biochemical
Procedure: as §3

[2] = test system: panel of mammalian PTPs (PTP-MEG1, SHP1, SHP2, Lyp, FAP-1, PTP-PEST, PTPH1, Laforin, HePTP, CD45, LAR, DEP1, PTPμ, PTPγ, PTPβ, PTPε, VHR, VHX); assay: Inhibition of a panel of mammalian PTPs at 10 μM; type: biochemical
Procedure: as §3

PTPγ = PTPγ (Homo sapiens (Human), UniProt P23470); assay: pNPP hydrolysis enzyme assay, PTPγ; type: biochemical
Procedure: as §3

PTP-MEG1 = PTP-MEG1 (Homo sapiens (Human), UniProt P29074); assay: pNPP hydrolysis enzyme assay, PTP-MEG1; type: biochemical
Procedure: as §3

Chain of PTPH1 (P26045 whole entry, species assumed): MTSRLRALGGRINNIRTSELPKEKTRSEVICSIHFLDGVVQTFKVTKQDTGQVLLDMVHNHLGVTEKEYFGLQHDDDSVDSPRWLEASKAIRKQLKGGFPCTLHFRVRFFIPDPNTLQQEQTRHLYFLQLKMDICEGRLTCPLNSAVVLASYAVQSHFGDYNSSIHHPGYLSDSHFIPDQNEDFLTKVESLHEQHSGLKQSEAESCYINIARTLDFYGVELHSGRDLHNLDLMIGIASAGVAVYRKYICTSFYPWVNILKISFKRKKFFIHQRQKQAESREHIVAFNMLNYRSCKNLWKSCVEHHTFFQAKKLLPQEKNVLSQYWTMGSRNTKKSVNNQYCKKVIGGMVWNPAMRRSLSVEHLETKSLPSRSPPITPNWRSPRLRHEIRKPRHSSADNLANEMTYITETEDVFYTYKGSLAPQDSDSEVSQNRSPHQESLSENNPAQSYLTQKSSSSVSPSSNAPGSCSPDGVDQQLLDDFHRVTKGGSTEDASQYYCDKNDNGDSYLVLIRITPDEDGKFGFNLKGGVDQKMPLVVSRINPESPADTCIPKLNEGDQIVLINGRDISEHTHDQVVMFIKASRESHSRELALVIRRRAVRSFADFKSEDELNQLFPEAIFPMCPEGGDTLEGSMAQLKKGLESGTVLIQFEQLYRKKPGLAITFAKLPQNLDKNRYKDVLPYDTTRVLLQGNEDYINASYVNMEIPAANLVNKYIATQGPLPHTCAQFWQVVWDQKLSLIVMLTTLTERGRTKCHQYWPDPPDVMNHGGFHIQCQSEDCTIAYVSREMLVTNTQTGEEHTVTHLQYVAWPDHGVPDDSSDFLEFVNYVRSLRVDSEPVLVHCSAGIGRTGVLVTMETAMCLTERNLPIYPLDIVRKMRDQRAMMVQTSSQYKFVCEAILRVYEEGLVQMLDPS
Chain of PTPε (P23469 20-700): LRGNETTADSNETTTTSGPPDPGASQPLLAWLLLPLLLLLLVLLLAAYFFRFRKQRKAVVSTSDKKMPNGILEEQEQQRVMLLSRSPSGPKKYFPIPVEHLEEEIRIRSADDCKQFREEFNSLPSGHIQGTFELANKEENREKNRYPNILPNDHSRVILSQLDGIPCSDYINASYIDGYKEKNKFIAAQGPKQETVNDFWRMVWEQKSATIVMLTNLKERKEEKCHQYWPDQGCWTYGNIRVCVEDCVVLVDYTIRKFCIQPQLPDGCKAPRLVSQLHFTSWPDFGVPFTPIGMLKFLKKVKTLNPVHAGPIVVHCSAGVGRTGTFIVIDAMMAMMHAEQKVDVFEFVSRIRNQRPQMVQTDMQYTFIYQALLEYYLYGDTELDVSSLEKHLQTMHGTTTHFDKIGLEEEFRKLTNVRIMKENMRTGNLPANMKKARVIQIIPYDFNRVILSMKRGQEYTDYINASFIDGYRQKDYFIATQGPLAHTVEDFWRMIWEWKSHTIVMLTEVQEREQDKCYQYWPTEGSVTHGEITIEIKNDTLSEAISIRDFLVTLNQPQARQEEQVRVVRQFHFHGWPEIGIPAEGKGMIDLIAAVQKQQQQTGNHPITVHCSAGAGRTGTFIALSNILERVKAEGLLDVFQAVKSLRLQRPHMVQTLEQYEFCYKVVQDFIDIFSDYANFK
Chain of FAP1 (Q12923 whole entry, species assumed): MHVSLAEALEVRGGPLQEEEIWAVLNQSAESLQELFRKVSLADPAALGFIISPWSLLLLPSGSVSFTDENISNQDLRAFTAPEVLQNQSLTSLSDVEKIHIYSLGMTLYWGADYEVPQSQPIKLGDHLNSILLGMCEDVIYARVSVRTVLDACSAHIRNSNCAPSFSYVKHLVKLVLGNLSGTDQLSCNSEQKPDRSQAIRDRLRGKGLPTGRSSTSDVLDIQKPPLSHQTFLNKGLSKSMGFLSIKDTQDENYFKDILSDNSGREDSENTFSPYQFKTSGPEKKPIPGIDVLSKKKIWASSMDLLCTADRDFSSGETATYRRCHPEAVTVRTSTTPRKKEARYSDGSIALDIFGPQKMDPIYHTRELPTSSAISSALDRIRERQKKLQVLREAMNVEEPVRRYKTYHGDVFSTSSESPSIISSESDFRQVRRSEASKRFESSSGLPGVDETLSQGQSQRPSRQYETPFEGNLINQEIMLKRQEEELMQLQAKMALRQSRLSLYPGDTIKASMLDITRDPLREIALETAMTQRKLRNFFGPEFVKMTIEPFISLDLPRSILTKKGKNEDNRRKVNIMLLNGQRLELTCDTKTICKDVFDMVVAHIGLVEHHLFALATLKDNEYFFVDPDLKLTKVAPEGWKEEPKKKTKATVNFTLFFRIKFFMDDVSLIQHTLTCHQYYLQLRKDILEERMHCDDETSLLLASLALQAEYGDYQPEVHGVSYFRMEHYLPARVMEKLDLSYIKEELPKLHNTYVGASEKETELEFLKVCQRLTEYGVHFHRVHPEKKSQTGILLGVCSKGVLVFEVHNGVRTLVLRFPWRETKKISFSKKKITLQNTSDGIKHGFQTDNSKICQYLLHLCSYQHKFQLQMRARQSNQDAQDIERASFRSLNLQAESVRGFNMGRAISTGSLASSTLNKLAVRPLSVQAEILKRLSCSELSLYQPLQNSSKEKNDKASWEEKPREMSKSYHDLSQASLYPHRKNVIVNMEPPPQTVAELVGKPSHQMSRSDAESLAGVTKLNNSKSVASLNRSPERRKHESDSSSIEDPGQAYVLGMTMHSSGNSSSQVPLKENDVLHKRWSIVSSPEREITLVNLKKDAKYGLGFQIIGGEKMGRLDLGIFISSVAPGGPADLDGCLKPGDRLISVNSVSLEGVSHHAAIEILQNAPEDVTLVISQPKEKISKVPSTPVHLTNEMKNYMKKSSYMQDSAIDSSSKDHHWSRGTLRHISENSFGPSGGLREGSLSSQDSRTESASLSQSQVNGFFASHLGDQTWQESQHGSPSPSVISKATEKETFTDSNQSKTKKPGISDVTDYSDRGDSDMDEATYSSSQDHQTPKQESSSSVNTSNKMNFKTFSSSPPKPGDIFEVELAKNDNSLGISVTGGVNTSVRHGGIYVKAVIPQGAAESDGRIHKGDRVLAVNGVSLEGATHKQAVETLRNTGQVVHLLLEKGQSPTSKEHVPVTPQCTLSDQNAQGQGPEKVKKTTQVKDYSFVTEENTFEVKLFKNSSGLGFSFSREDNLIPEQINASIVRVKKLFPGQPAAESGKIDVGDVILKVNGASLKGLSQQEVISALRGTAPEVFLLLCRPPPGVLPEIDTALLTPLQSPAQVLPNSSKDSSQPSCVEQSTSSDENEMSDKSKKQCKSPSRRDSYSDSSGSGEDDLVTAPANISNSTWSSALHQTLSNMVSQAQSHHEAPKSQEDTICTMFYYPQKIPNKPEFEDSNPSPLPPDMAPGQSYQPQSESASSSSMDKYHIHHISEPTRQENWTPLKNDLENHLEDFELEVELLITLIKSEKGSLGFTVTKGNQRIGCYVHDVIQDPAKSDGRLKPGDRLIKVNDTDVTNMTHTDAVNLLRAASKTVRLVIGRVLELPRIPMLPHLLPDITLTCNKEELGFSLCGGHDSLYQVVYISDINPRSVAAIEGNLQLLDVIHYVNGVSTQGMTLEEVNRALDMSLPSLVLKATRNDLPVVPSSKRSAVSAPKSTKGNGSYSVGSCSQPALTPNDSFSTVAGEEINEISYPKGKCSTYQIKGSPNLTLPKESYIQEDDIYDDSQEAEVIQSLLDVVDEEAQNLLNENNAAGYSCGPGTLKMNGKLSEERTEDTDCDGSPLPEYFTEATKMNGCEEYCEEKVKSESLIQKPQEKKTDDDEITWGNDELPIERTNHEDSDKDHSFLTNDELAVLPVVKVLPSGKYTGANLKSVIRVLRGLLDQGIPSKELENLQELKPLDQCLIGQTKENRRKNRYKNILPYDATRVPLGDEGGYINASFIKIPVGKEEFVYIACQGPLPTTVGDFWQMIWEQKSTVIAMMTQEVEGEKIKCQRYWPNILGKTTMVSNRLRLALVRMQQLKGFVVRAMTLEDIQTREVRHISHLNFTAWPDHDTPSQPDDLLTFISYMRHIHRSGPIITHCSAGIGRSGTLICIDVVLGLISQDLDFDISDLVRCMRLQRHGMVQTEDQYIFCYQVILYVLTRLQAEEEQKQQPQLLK
Chain of Laforin (O95278 whole entry, species assumed): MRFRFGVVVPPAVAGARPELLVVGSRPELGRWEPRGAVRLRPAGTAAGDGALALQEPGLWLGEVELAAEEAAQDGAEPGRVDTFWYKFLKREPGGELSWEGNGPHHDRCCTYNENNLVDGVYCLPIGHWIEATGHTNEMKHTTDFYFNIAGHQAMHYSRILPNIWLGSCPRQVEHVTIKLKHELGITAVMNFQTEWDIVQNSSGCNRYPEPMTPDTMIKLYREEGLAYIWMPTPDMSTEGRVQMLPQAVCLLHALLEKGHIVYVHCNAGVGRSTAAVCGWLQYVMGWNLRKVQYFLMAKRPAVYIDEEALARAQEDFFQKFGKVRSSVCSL

SMILES: COc1cc(CC(=O)NCC(NC(=O)C(CCCNC(=O)c2cccc(I)c2)NC(=O)C(Cc2ccc(C(F)(F)P(=O)(O)O)cc2)NC(=O)c2ccc(C)c(Br)c2)C(N)=O)ccc1O (stereo not drawn) [Compound 7]
- insulin signaling (phospho-IR, phospho-Akt) (HepG2 hepatocytes): augmented insulin signaling
- increase of Akt (Ser473) phosphorylation [1]: 40-60%
- phosphorylation of Tyr1162/1163 in IR, higher than control mice [1]: 2-3 fold
- IC50 (PTPH1): > 10000 nM
- IC50 (LYP): > 10000 nM
- IC50 (PTPε): > 10000 nM
- insulin signaling (phospho-Akt, phospho-IR) (C2C12 myotubes): augmented insulin signaling
- IC50 (FAP1): > 10000 nM
- IC50 (Laforin): > 10000 nM
- inhibition of a panel of mammalian PTPs [2]: no inhibition
- IC50 (PTPγ): > 10000 nM
- IC50 (PTP-MEG1): > 10000 nM
